What was measured:
Sprague Dawley rats = test: Toxicity and mortality in anesthetized rats given protein synthesis inhibitors (Example 3)
protein synthesis = test: 35S-methionine incorporation into tissue protein after i.v. protein synthesis inhibitor in anesthetized rats (Example 3); format: in vivo, Sprague Dawley rats

Compound: C[C@H]1c2cccc(O)c2C(=O)C2=C(O)[C@]3(O)C(=O)C(C(N)=O)=C(O)[C@@H](N(C)C)[C@@H]3[C@@H](O)[C@@H]21 [Doxycycline]
- mortality (Sprague Dawley rats; at doses <1/3 of LD50): ~66%

Compound: O=c1c(-c2ccc(O)cc2)coc2cc(O)cc(O)c12 [Genistein]
- inhibition of protein synthesis (in words) (protein synthesis; single agents, intravenous): poor inhibitor
- toxicity (Sprague Dawley rats; rat, in vivo): toxicity at low doses

Compound: COc1ccc(C[C@H](N)C(=O)N[C@H]2[C@@H](O)[C@H](n3cnc4c(N(C)C)ncnc43)O[C@@H]2CO)cc1 [puromycin]
- inhibition of protein synthesis (in words) (protein synthesis; single agents, intravenous): substantial inhibition

Compound: COc1ccc(C[C@H]2NC[C@H](O)[C@H]2OC(C)=O)cc1 [anisomycin]
- inhibition of protein synthesis (in words) (protein synthesis; rat, in vivo, iv): substantial inhibition

Source: patent publication US20060052356A1, “Pharmacological methods to modulate oxygen consumption” (priority 2004, published 2006)
